Assay results: PMC2674587 (BMC Immunology, 2009)
pIC50: −log10 of the molar value. Where two headings read alike, the source gives them in different places.

Assays:
[1] = system: H-Y+ target cells (male splenocytes); assay: In vivo cytotoxicity (CTL) assay against H-Y antigen; parameters: species or system C57BL/6 mice; details: for killing of male cells (CD8 T cell mediated): female mice primed and boosted with male splenocytes, CFSE-labeled targets, FACS, n = 8
Description: C57BL/6 female and male mice, age 8 ~10 weeks, were used for in vivo cytotoxicity assays. Female mice were immunized i.p. with syngeneic C57BL/6 male splenocytes (1 × 10^7 in 100 μl PBS) at day 0 and boosted at day 10 to generate anti-H-Y cytotoxic T cells. The in vivo CTL assay was performed as described earlier with some modifications Target cells were prepared and adoptively transferred to recipient female mice at day 18 post priming and specific killing of target H-Y^+ cells was analyzed at day 19. Briefly, male and female C57BL/6 naïve splenocytes were isolated and depleted of erythrocyte with RBC lysis buffer (Sigma-Aldrich, St. Louis, MO, USA). The splenocytes were washed 1× with 10% FBS RPMI 1640 and 2× with PBS. The cell densities were adjusted to 2×10^7 cells/ml. Male splenocytes were labeled with a high concentration (5 μM) of 5,6-carboxy-fluorescein succinimdyl ester (CFSE, Molecular Probes, Eugene, OR, USA), and the female splenocyte were labeled with low CFSE (0.5 μM). CFSE labeling was carried out by incubating 2 × 10^7 cells/ml in PBS with CFSE at 37°C in a 5% CO2 incubator for 10 min and quenched by adding 10% FBS RPMI to a final volume of 50 ml. Cells were washed 1× with 10%FBS RPMI and 2× with PBS to remove free CFSE. Male and female splenocytes were mixed 1:1 in PBS for the adoptive transfer. 10^6 cells in 200 μl PBS were injected into recipient female mice via tail vein injection. Similar amounts of cell were injected into the control unimmunized female mice. Spleens from the recipient mice were harvested after 16 hr, and splenocytes were analyzed for specific killing of H-Y^+ target cells by FACS. At least 5,000 CFSE positive cells were analyzed. The recovery and percent killing of the CFSE-labeled targets were calculated as follows: […]

hDPP-9 [2] = target: T1, hDPP-9 (Homo sapiens, UniProt Q86TI2); assay: DPP-9 enzyme inhibition; type: biochemical
hDPP-2 = hDPP-2 (Homo sapiens, UniProt Q9UHL4); assay: DPP-2 enzyme inhibition; type: biochemical
[3] = system: T cell-dependent antibody responses to NP-CGG; assay: T cell-dependent antibody responses to NP-CGG (ELISA titers, altered ligand density ELISA); type: in vivo, C57BL/6 mice; details: mice on chow ~400 mg/kg, immunized with NP-CGG
Description: Mice were immunized i.p. with 100 μg of NP-CGG in alum for the primary immunization, and 100 μg of NP-CGG in PBS i.p. for the secondary immunization. Mice were bled via the retro orbital sinus at indicated times and the levels of anti-NP and CGG antibodies and their isotypes were determined by ELISA as described previously. Briefly, mouse serum antibodies were immobilized onto 96-well plates coated with NP-BSA or CGG and detected with biotin-conjugated anti-mouse immunoglobulins. […] Relative affinities of serum antibodies were evaluated by using altered ligand density ELISA as described earlier.

hDPP-9 [4] = target: T1, hDPP-9; parameters: method as in PMID 16186403, PMID 16731832; details: read-out: does not inhibit DPP-9 at; cited from earlier work
Proline dipeptidase = details: read-out: does not inhibit Proline dipeptidase; cited from earlier work
Prolyl endopeptidase = details: read-out: does not inhibit Prolyl endopeptidase; cited from earlier work
[5] = system: Fibroblast activation protein; details: read-out: does not inhibit Fibroblast activation protein; cited from earlier work
Amino peptidase P = details: read-out: does not inhibit Amino peptidase P; cited from earlier work
Prolidase = details: read-out: does not inhibit Prolidase; cited from earlier work

T1 sequence (Q86TI2 whole entry): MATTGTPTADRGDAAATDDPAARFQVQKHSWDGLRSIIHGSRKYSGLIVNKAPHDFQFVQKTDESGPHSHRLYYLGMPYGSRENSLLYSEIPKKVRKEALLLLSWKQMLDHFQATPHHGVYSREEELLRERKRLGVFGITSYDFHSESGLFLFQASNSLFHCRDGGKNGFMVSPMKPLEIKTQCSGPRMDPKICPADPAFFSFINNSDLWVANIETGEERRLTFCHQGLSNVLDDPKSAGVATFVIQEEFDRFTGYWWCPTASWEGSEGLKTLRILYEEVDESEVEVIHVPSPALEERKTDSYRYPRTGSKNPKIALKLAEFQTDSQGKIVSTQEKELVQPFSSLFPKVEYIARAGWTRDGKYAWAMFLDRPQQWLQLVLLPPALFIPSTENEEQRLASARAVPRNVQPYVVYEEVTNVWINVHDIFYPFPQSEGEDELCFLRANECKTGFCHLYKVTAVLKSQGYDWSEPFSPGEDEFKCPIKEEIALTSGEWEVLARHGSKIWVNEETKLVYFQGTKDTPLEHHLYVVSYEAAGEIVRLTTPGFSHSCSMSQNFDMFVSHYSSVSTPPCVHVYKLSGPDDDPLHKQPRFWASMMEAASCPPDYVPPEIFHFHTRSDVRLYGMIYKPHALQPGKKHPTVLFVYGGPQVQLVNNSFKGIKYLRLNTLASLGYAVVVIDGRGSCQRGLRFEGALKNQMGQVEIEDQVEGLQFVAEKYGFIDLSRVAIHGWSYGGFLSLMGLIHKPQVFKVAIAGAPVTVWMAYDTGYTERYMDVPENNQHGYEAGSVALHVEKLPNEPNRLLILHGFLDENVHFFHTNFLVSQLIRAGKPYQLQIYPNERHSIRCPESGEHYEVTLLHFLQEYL

| SMILES | killing of male cells (CD8 T cell mediated) [1] | pIC50 (hDPP-9 [2]) | pIC50 (hDPP-2) | titers of anti-CGG IgG1 and other isotypes, drug treated vs control animals [3] | total anti-NP response as measured by λ-bearing and G1 isotype ([3]; primary and secondary response vs control) | CD8 T cell cytotoxicity in comparison to the wild type animals ([1]; female mice primed with male cells, compound in chow throughout) | pIC50 (hDPP-9 [4]) | pIC50 (Proline dipeptidase) | pIC50 (Prolyl endopeptidase) | pIC50 [5] | pIC50 (Amino peptidase P) | pIC50 (Prolidase) |
| --- | --- | --- | --- | --- | --- | --- | --- | --- | --- | --- | --- | --- |
| C=CC[C@@H]1/C=C(\C)C[C@H](C)C[C@H](OC)[C@H]2O[C@@](O)(C(=O)C(=O)N3CCCC[C@H]3C(=O)O[C@H](/C(C)=C/[C@@H]3CC[C@@H](O)[C@H](OC)C3)[C@H](C)[C@@H](O)CC1=O)[C@H](C)C[C@@H]2OC [FK506] | 40% |  |  |  |  |  |  |  |  |  |  |  |
| N[C@@H](CC(=O)N1CCn2c(nnc2C(F)(F)F)C1)Cc1cc(F)ccc1F [Des-flurositagliptin, des-fluro sitagliptin] | ~ 67% | < 5.00 | < 5.00 | similar | unaltered | equivalent cytotoxicity | < 5.00 | < 5.00 | < 5.00 | < 5.00 | < 5.00 | < 5.00 |
